Patent publication US20260191194A1, “OXABICYCLOALKANE COMPOUNDS, PREPARATION METHOD THEREFOR, AND HERBICIDAL COMPOSITION AND USE THEREOF” (QINGDAO KINGAGROOT CHEMICAL COMPOUND CO., LTD., priority 2022, published 2026)

How the values were obtained:
Assay type in all cases: in vivo
[1] = test system: Echinochloa glabrescens; assay: Activity test of compositions, early post-emergence foliage spray (F-EP); conditions: 21 days after treatment
Experimental: (§1) The required active ingredient B was purchased from a reagent company or synthesized by a known method. The technical materials were all dissolved with acetone solvents and diluted with an aqueous solution of 0.1% Tween 80 emulsifier, which were to be used immediately after dilution.
(§2) Weeds were cultivated by a pot culture method. […] Weed seeds with plump and uniform grains were selected, soaked in lukewarm water at 25° C. for 6 hours, and accelerated to germinate in a 28° C. biochemical incubator (in darkness). The weed seeds that had just germinated were evenly placed on the surface of the soil and then covered with 0.5-1 cm soil according to the sizes of seeds.
(§3) The culture was carried out in a controllable sunlight greenhouse at 20 to 30° C., in natural light, and with relative humidity of 57% to 72%.
(§4) Each treatment was repeated 4 times. Four pots with 20 weed seeds sowed per pot were treated each time.
(§5) The agents were used once in total in the experiment. In the stage of 1-2 leaves, the weeds were thinned out to maintain 10 strains per treatment for later use.
(§6) The well-cultured test materials were evenly placed on a platform with an area of 0.5 m^2, and foliage spraying was carried out by the 3WP-2000-type walking spray tower at a dosage of 450 kg/ha and a spray pressure of 0.3 MPa. After all the solution was sprayed, the air valve was closed, and 30 seconds later, the door of the spray tower was opened, and the nutritional bowl was taken out. Then the air valve was opened, and the spray tube was cleaned by spraying 50 ml of water. The test materials were transferred to and routinely cultured in a greenhouse after the treatment.
(§7) A method for investigating absolute numbers was employed. Whole seedlings of survival weeds were cut off with a blade along the soil surface, and the fresh weight of the weeds was weighed using an analytical balance. For dead weeds, the fresh weight thereof was zero.
(§8) The investigation was performed 21 days after the treatment for once in total.
(§9) The theoretical fresh weight inhibition rate of a mixed combination of each treatment was calculated by the Gowing method (E0=X+Y−X*Y/100). […] An optimal ratio was determined according to the actual control effects, characteristics of herbicides, and balance of the formulation. In the formula, X represents the fresh weight inhibition rate of the active ingredient A in a dosage of P; Y represents the fresh weight inhibition rate of the active ingredient B in a dosage of Q. The statistical results are shown in Table 4.

[2] = test system: Cyperus glomeratus; assay: Activity test of compositions, soil sealing treatment (S); conditions: 21 days after treatment
Experimental: as §1
(§10) Weeds were cultivated in a controllable sunlight greenhouse at 20 to 30° C., in natural light, and with relative humidity of 57% to 72%. […] The test soil was quantitatively filled to 3/4 of the pot, and then watered from the bottom of the pot to completely wet the soil to saturation. The test weed seeds were accelerated to just germinate, and then evenly and quantitatively sowed on the soil surface, covered with 0.5-1 cm soil according to the sizes of the seeds, and ready for use 72 hours after sowing.
as §4
as §6, with “well-sowed” for “well-cultured”, “water.” for “water. The test materials were transferred to and routinely cultured in a greenhouse after the treatment.”
as §7, §8, §9

[3] = test system: Echinochloa glabrescens; assay: as above; conditions: 21 days after treatment
Experimental: as §1, §10, §4
as §6, with “well-sowed” for “well-cultured”, “water.” for “water. The test materials were transferred to and routinely cultured in a greenhouse after the treatment.”
as §7, §8, §9

[4] = test system: Echinochloa crus-galli var. austrojaponensis; assay: Activity test of compositions, early post-emergence foliage spray (F-EP); conditions: 21 days after treatment
Experimental: as §1, §2, §3, §4, §5, §6, §7, §8, §9

[5] = test system: Digitaria ischaemum; assay: Activity test of compositions, soil sealing treatment (S); conditions: 21 days after treatment
From the text: as §1
The test soil was quantitatively filled to 3/4 of the pot, and then watered from the bottom of the pot to completely wet the soil to saturation. The test weed seeds were accelerated to just germinate, and then evenly and quantitatively sowed on the soil surface, covered with 0.5-1 cm soil according to the sizes of the seeds, and ready for use 72 hours after sowing.
as §4
as §6, with “well-sowed” for “well-cultured”, “water.” for “water. The test materials were transferred to and routinely cultured in a greenhouse after the treatment.”
as §7, §8, §9

[6] = test system: Soliva anthemifolia; assay: Activity test of compositions, early post-emergence foliage spray (F-EP); conditions: B alone 7.5 g a.i./ha, 21 days after treatment
Experimental: as §1, §2, §3, §4, §5, §6, §7, §8, §9

[7] = test system: Arivela viscosa; assay: Activity test of compositions, soil sealing treatment (S); conditions: 21 days after treatment
Experimental: as §1, §10, §4
as §6, with “well-sowed” for “well-cultured”, “water.” for “water. The test materials were transferred to and routinely cultured in a greenhouse after the treatment.”
as §7, §8, §9

[8] = test system: Oxybasis glauca; assay: as above; conditions: 21 days after treatment
Experimental: as §1, §10, §4
as §6, with “well-sowed” for “well-cultured”, “water.” for “water. The test materials were transferred to and routinely cultured in a greenhouse after the treatment.”
as §7, §8, §9

CCCCOC(=O)[C@@H](C)Oc1ccc(Oc2ccc(C#N)cc2F)cc1 [cyhalofop-butyl]
Control effect of B applied alone in a corresponding dose ([1]; B alone 150 g a.i./ha): 46.6%

oxadiargyl
Control effect of B applied alone in a corresponding dose ([2]; B alone 45 g a.i./ha): 42.5%

COP(=S)(OC)SCC(=O)N(c1ccc(Cl)cc1)C(C)(C)C [anilofos]
Control effect of B applied alone in a corresponding dose ([3]; B alone 75 g a.i./ha): 37.2

CS(=O)(=O)c1ccc(C(=O)C2C(=O)CCCC2=O)c([N+](=O)[O-])c1 [mesotrione]
pest or weed control at 60 g/ha ([4]; Echinochloa crus-galli, 504 h, B alone 60 g a.i./ha (with A 60), read-out: Control effect of B applied alone in a corresponding dose): 51.7%

CCC(CC)Nc1c([N+](=O)[O-])cc(C)c(C)c1[N+](=O)[O-] [pendimethalin]
Control effect of B applied alone in a corresponding dose ([5]; B alone 375 g a.i./ha): 65.7

CCOC(=O)c1cnn(C)c1S(=O)(=O)NC(=O)Nc1nc(OC)cc(OC)n1 [pyrazosulfuronethyl, pyrazosulfuron-ethyl]
Control effect of B applied alone in a corresponding dose ([2]; B alone 7.5 g a.i./ha): 29.8%

CCCC(=NOCC(C)Oc1ccc(Cl)cc1)C1=C(O)CC(C2CCCSC2)CC1=O (centres unmarked) [profoxydim]
Control effect of B applied alone in a corresponding dose ([1]; B alone 45 g a.i./ha): 54.7%

CCNc1nc(Cl)nc(NC(C)C)n1 [atrazine]
pest or weed control at 450 g/ha ([4]; Echinochloa crus-galli, 504 h, B alone 450 g a.i./ha, read-out: Control effect of B applied alone in a corresponding dose): 43.4%

CCC(C)Nc1c([N+](=O)[O-])cc(C(C)(C)C)cc1[N+](=O)[O-] (centres unmarked) [butralin]
Control effect of B applied alone in a corresponding dose ([5]; B alone 900 g a.i./ha): 60.2

CN(C(=O)COc1nc2ccccc2s1)c1ccccc1 [mefenacet]
Control effect of B applied alone in a corresponding dose ([3]; B alone 150 g a.i./ha): 37.9

CS(=O)(=O)c1ccc(C(=O)C2C(=O)CCCC2=O)c(Cl)c1COCC1CCCO1 (centres unmarked) [tefuryltrione]
Control effect of B applied alone in a corresponding dose ([4]; B alone 15 g a.i./ha): 51.7%

COc1c(Cl)ccc(-c2nc(C(=O)OCc3ccccc3)c(Cl)c(N)c2F)c1F [florpyrauxifenbenzyl, florpyrauxifen-benzyl]
Control effect of B applied alone in a corresponding dose [6]: 60.2%

CC(C)Oc1cc(-n2nc(C(C)(C)C)oc2=O)c(Cl)cc1Cl [oxadiazon]
Control effect of B applied alone in a corresponding dose ([2]; B alone 90 g a.i./ha): 32.4%

Cc1cc(C)n(Cc2c(S(C)(=O)=O)ccc(C(=O)c3c(C)nn(C)c3OC(=O)c3cn(C)nc3C)c2Cl)n1 [tripyrasulfone]
Control effect of B applied alone in a corresponding dose ([4]; B alone 60 g a.i./ha): 50.4%

O=C(Nc1ccc(F)cc1F)c1cccnc1Oc1cccc(C(F)(F)F)c1 [diflufenican]
Control effect of B applied alone in a corresponding dose ([7]; B alone 52.5 g a.i./ha): 65.8%

C[C@@H](Oc1ccc(Oc2nc3ccc(Cl)cc3o2)cc1)C(=O)N(C)c1ccccc1F [metamifop]
Control effect of B applied alone in a corresponding dose ([1]; B alone 75 g a.i./ha): 58.8%

Cn1nc(C(F)(F)F)c(CS(=O)(=O)C2=NOC(C)(C)C2)c1OC(F)F [pyroxasulfone]
Control effect of B applied alone in a corresponding dose ([5]; B alone 45 g a.i./ha): 46.3

Cc1ccn2nc(S(=O)(=O)Nc3c(F)cccc3F)nc2n1 [flumetsulam]
Control effect of B applied alone in a corresponding dose ([8]; B alone 15 g a.i./ha): 57.9

C#CCN1C(=O)COc2cc(F)c(N3C(=O)C4=C(CCCC4)C3=O)cc21 [flumioxazin]
Control effect of B applied alone in a corresponding dose ([8]; B alone 30 g a.i./ha): 55.6

CCNc1nc(Cl)nc(NC(C)(C)C)n1 [terbuthylazine]
pest or weed control at 225 g/ha ([4]; Echinochloa crus-galli, 504 h, B alone 225 g a.i./ha, read-out: Control effect of B applied alone in a corresponding dose): 48.4%

CCCOCCN(C(=O)CCl)c1c(CC)cccc1CC [pretilachlor]
Control effect of B applied alone in a corresponding dose ([3]; B alone 150 g a.i./ha): 43.6

CS(=O)(=O)c1ccc(C(=O)C2=C(Sc3ccccc3)C3CCC(C3)C2=O)c(Cl)c1 (centres unmarked) [benzobicyclon]
Control effect of B applied alone in a corresponding dose ([4]; B alone 60 g a.i./ha): 48.7%

CC[C@H](Oc1ccc(F)c(C(F)(F)F)c1)C(=O)NCc1ccccc1 [beflubutamid-M]
Control effect of B applied alone in a corresponding dose ([7]; B alone 90 g a.i./ha): 55.2%
